According to US20020055528A1, “Artemisinin analogs having antimalarial, antiproliferative, and antitumor activities and chemoselective methods of making the same” (priority 1999, published 2002):
“Also recorded” adds a separate entry of the source.

Legend:
Type in all cases: cell-based
[1] = system: K-562; test: NCI 60 cell line screen (SRB), Leukemia
[2] = system: MDA-MB231/ATCC; test: NCI 60 cell line screen (SRB), Breast Cancer; conditions: MDA- (first line of MDA-MB231/ATCC)
[3] = system: SK-OV-3; test: NCI 60 cell line screen (SRB), Ovarian Cancer
[4] = system: HCC-2998; test: NCI 60 cell line screen (SRB), Colon Cancer
[5] = system: HCT-116; test: NCI 60 cell line screen (SRB), Colon Cancer
[6] = system: OVCAR-5; test: NCI 60 cell line screen (SRB), Ovarian Cancer
[7] = system: HL-60(TB); test: NCI 60 cell line screen (SRB), Leukemia
[8] = system: NCI-H522; test: NCI 60 cell line screen (SRB), Non-Small Cell Lung Cancer
[9] = system: UACC-257; test: NCI 60 cell line screen (SRB), Melanoma
[10] = system: NCI-H322M; test: NCI 60 cell line screen (SRB), Non-Small Cell Lung Cancer
[11] = system: SK-MEL-28; test: NCI 60 cell line screen (SRB), Melanoma
[12] = system: LOX IMVI; test: NCI 60 cell line screen (SRB), Melanoma
[13] = system: 60 cell line panel; test: NCI 60 cell line screen (SRB), whole panel
Description: The screening assay is performed on 96-well microtitre plates. Relatively high initial inoculation densities are used, in order to permit measurement of “time-zero” values and to enhance the screen's ability to detect and provide some differentiation between antiproliferative and cytotoxic response parameters. […] The inoculated microtitre plates are pre-incubated for 24 hours at 37θC prior to drug additions. The five drug dilutions tested routinely range from 10^−4 to 10^−8 molar. Higher or lower concentration ranges may be selected on a nonroutine basis if appropriate solubility and/or prior biological information or other screening data so dictate. Duplicate wells are prepared for all concentrations, (concentration is often denoted by placing brackets around a number); “time-zero” and “no drug” controls are also provided for each test. The minimum amount of compound required for a one-time evaluation in the routine screen can be calculated from the knowledge that each test requires a total of approximately 40 ml (0.04 liter) of cell culture medium containing the highest desired drug concentration. Thus, the amount (grams) of sample required (assuming an upper test concentration limit of 10^−4 M) is: molecular weight of compound×[…]. After a 48 hour incubation (37θC) with the test compound, the cells are fixed in situ to the bottoms of the microtitre wells by addition of 50 ul of either 50% trichloroacetic acid (for adherent cell lines) or 80% trichloroacetic acid (for settled cell suspension lines), followed by incubation for 60 minutes at 4θC. The cellular protein in each well is assayed using a sulforhodamine B (SRB) stain procedure. Briefly, after discarding the supernatants, the microtitre plates are washed 5 times with deionized water and air-dried. One hundred microliters of SRB solution (0.4% w/v in 1% acetic acid) is added to each microtitre well and incubated for 10 minutes at room temperature. Unbound SRB is removed by washing 5 times with 1 % acetic acid. The plates are air-dried, the bound stain is solubilized with Tris buffer, and the optical densities read at 515 nm. SRB is a bright pink anionic dye which, in dilute acetic acid, binds electrostatically to the basic amino acids of TCA-fixed cells. Cryopreserved master stocks of all the lines are maintained, and cultures used for screening are replaced from the master stock after no more than twenty passages in the screening laboratory. The cell line panel consists of 60 lines, organized into nine, disease-related subpanels including leukemia, non-small-cell lung cancer, colon, CNS, melanoma, ovarian, renal, prostate and breast cancers.
The response parameters G150 and LC50 are interpolated values representing the concentrations at which the percentage growth (PG) is +50 and −50, respectively:
GI50 is the concentration for which the PG=+50. At this value the increase from time tzero, in the number or mass of cells in the test well is only 50% as much as the corresponding increase in the control well during this period of the experiment, see Table II. A drug effect of this intensity is interpreted as primary growth inhibition.
TGI is the concentration for which PG=0. At this value the number or mass of cells in the well at the end of the experiment equals the number or mass of cells in the well at time tzero, see Table III. A drug effect of this intensity is regarded as cytostasis.
LC50 is the concentration for which the PG=−50. At this value, the number or mass of cells in the test well at the end of the experiment is half that at time tzero, see Table IV. This is interpreted as cytotoxicity.

[14] = system: SK-MEL2; test: NCI 60 cell line screen (SRB), Melanoma
[15] = system: IGROVI; test: NCI 60 cell line screen (SRB), Ovarian Cancer
[16] = system: COLO 205; test: NCI 60 cell line screen (SRB), Colon Cancer
[17] = system: SF-268; test: NCI 60 cell line screen (SRB), CNS Cancer
[18] = system: SNB-75; test: NCI 60 cell line screen (SRB), CNS Cancer
[19] = system: SF-295; test: NCI 60 cell line screen (SRB), CNS Cancer

CC1=C(C=Cc2cccc(C=CC3=C(C)C4CCC(C)C5CCC6(C)OOC45C(O3)O6)c2)OC2OC3(C)CCC4C(C)CCC1C24OO3 (centres unmarked) [VII-f] showed a Log10TGI ([1]; PG=0) of −6.18 log10M, a Log10GI50 ([1]; PG=+50) of −6.18 log10M and a Log10GI50 ([1]; Table IV (LC50, PG=−50)) of over −4.00 log10M. The Log10TGI ([2]; PG=0) was −4.70 log10M, the “Log10 GI50 or LC50 (per conditions)” value ([2]; PG=+50) was −5.67 log10M and the “Log10 GI50 or LC50 (per conditions)” value ([2]; Table IV (LC50, PG=−50)) was over −4.00 log10M. It also gave a Log10TGI ([3]; PG=0) of over −4.00 log10M, a Log10GI50 ([3]; PG=+50) of −4.52 log10M and a Log10GI50 ([3]; Table IV (LC50, PG=−50)) of over −4.00 log10M. The Log10TGI ([4]; PG=0) was over −4.00 log10M, the Log10GI50 ([4]; PG=+50) was −5.59 log10M and the Log10TGI ([5]; PG=0) was over −4.00 log10M. The “Log10 GI50 (PG=+50) or Log10 LC50 (PG=−50), as given per row condition” value ([5]; PG=+50) was −6.12 log10M, the “Log10 GI50 (PG=+50) or Log10 LC50 (PG=−50), as given per row condition” value ([5]; Table IV (LC50, PG=−50)) was over −4.00 log10M and the Log10TGI ([6]; PG=0) was over −4.00 log10M. For the same molecule, the Log10GI50 ([6]; PG=+50) was −6.04 log10M, the Log10GI50 ([6]; Table IV (LC50, PG=−50)) was over −4.00 log10M and the Log10TGI ([7]; PG=0) was −6.71 log10M. The Log10GI50 ([7]; PG=+50) was −6.71 log10M, the Log10GI50 ([7]; Table IV (LC50, PG=−50)) was over −4.00 log10M and the Log10TGI ([8]; PG=0) was over −4.00 log10M. For the same molecule, the Log10GI50 ([8]; PG=+50) was −6.07 log10M, the Log10GI50 ([8]; Table IV (LC50, PG=−50)) was over −4.00 log10M and the Log10TGI ([9]; PG=0) was over −4.00 log10M. The “Log10 GI50 (PG=+50) or Log10 LC50 (PG=−50)” value ([9]; PG=+50) was −6.02 log10M, the “Log10 GI50 (PG=+50) or Log10 LC50 (PG=−50)” value ([9]; Table IV (LC50, PG=−50)) was over −4.00 log10M and the Log10TGI ([10]; PG=0) was −4.39 log10M. It also gave a Log10GI50 ([10]; PG=+50) of −6.05 log10M, a Log10TGI ([11]; PG=0) of over −4.00 log10M and a Log10GI50 ([11]; PG=+50) of −4.00 log10M. For the same molecule, the Log10GI50 ([11]; Table IV (LC50, PG=−50)) was over −4.00 log10M, the Log10TGI ([12]; PG=0) was over −4.00 log10M and the Log10GI50 ([12]; PG=+50) was −5.79 log10M. The Log10GI50 ([12]; Table IV (LC50, PG=−50)) was over −4.00 log10M, the “MG MID of Log10GI50 (Table IV)” value ([13]; Table IV (LC50), mean over the panel) was −4.23 log10M and the “Delta of Log10GI50 (Table IV)” value ([13]; Table IV (LC50), panel summary) was 1.70. The “Range of Log10GI50 (Table IV)” value ([13]; Table IV (LC50), panel summary) was 1.93, the “potency in words, compared with artemisinin and paclitaxel” value ([13]; Tables II, III and IV) was “in most instances are as potent and in some instances more potent than paclitaxel; also recorded: more potent than artemisinin and equivalent to and in many instances higher in potency than paclitaxel” and the “MG MID of Log10GI50” value ([13]; mean over the panel) was −5.73 log10M. The “MG MID of Log10TGI” value ([13]; mean over the panel) was −4.23 log10M, the “Delta of Log10GI50” value ([13]; panel summary) was 0.98 and the “Delta of Log10TGI” value ([13]; panel summary) was 1.70. The “Range of Log10GI50” value ([13]; panel summary) was 2.71, the “Range of Log10TGI” value ([13]; panel summary) was 1.93 and the Log10TGI ([14]; PG=0) was −4.26 log10M. The “Log10 GI50 or LC50 (per conditions)” value ([14]; PG=+50) was −5.85 log10M, the “Log10 GI50 or LC50 (per conditions)” value ([14]; Table IV (LC50, PG=−50)) was over −4.00 log10M and the Log10TGI ([15]; PG=0) was over −4.00 log10M. The Log10GI50 ([15]; PG=+50) was −4.55 log10M, the Log10GI50 ([15]; Table IV (LC50, PG=−50)) was over −4.00 log10M and the Log10TGI ([16]; PG=0) was −5.93 log10M. The Log10GI50 ([16]; PG=+50) was −6.61 log10M, the Log10GI50 ([16]; Table IV (LC50, PG=−50)) was −5.30 log10M and the Log10TGI ([17]; PG=0) was over −4.00 log10M. For the same molecule, the Log10GI50 ([17]; PG=+50) was −5.70 log10M, the “Log10 GI50 (PG=+50) or LC50 (PG=−50)” value ([18]; PG=+50) was −5.84 log10M and the “Log10 GI50 (PG=+50) or LC50 (PG=−50)” value ([18]; Table IV (LC50, PG=−50)) was over −4.00 log10M. It also gave a Log10TGI ([19]; PG=0) of over −4.00 log10M and a Log10GI50 ([19]; PG=+50) of −5.25 log10M.
